Series [1] concerns human T lymphocytes (PBMC). Briefly: human mixed lymphocyte reaction (MLR). It counts as cell-based. The settings on record: 300 nM or 30 nM.
Series [2] concerns popliteal lymph node cells. Briefly: reporter antigen popliteal lymph node (PLN) assay. Type of series: in vivo, BALB/C mice. From the text: Analysis of immune suppression. Glucocorticoid steroids such as dexamethasone or hydrocortisone are typically immune suppressive and have significant toxicities associated with their use. Immune suppression was examined in a reporter antigen popliteal lymph node assay in mice essentially as previously described (C. Goebel et al., Inflamm. Res., 45(Suppl. 2):S85-S90, 1996; R. Pieters et al., Environmental Health Perspectives 107(Suppl. 5):673-677, 1999). […] In this protocol, the vehicle was 0.1% carboxymethylcellulose, 0.9% saline, 2% tween 80 and 0.05% phenol, which contained 17α-ethynylandrost-5-ene-3β,7β,17β-triol in suspension in drug treated animals. Assessment of activity included (1) measuring suppression of numbers of total lymphocytes, antigen specific IgM, IgG1 and IgG2a antibody secreting cells (ASC) (ELISPOT assay) in popliteal lymph node cells; (2) analysis of cell surface marker (CD4, CD8, CD19, F480, CD80, CD86) expression by flow cytometry of living cells in suspension; and (3) IL-4, TNFα and IFNγ production by lymphocytes in vitro (ELISA).
Groups (n=5 per group) of specific pathogen free BALB/C mice were used. The Positive control group was treated with vehicle (oral gavage) and 5 μg/day dexamethasone by subcutaneous injection to induce immune suppression. Vehicle control animals (negative control) were treated with vehicle alone (oral gavage). One group of animals was treated with 17α-ethynylandrost-5-ene-3β,7β,17β-triol at 0.1 mg/day by oral gavage. Another group was treated with 1 mg/day of 17α-ethynylandrost-5-ene-3β,7β,17β-triol was administered to the animals oral gavage. The results were analyzed by two-tailed Student's t-test with equal variance. The animals were injected in the right hind footpad with 50 μL of freshly prepared sensitizing dose of TNP-OVA. […] Single cell suspensions were prepared, resuspended in 1 mL PBS-BSA (1%) and counted. Cell numbers, IL-4, IL-5 and IFNγ were measured.

For series [3], the system named is NF-κB. The experiment in a line: kinetic analysis of NF-kB inhibition in vivo after LPS. More on the design: species or system mice. The method, then:
Kinetic analysis of NF-kB inhibition in vivo. […] The drug was injected 24 hours before intraperitoneal injection of bacterial LPS (about an LD50/24). The study used two groups of 12 animals, vehicle control or drug administered 24 hours before LPS challenge. Spleens were harvested from 3 animals from both groups just before LPS challenge and at 1.5, 2.0 and 2.5 hours after administration of LPS.
Maximum NF-κB activation after LPS administration occurred at 1.5 hours in the vehicle controls, which was 4-fold increased over the pre-LPS level of activated NF-κB. The values for the vehicle control and drug treated animals are relative optical density units from ELISA measurement of NF-κB in nuclei from spleen cells.

With `C#C[C@]1(O)CC[C@H]2[C@@H]3[C@@H](O)C=C4C[C@@H](O)CC[C@]4(C)[C@H]3CC[C@@]21C` [17α-ethynylandrost-5-ene-3β,7β,17β-triol], in series [1], the “immune suppression (inhibition of the MLR)” value is given as “not appreciably immune suppressive”. Also, the “average number of lymphocytes in PLNs” value in series [2] (0.1 mg/day oral gavage) is 11.1×10^6 per lymph node. Also, the “IFNγ, IL-4 and IL-5 levels compared to vehicle control” value in series [2] (compound 1.0 and 0.1 mg/day, dexamethasone 5 μg/day) is reported as “increased”. Also, the “activated NF-κB in spleen cell nuclei (ELISA)” value in series [3] (0 hours (before LPS), about 40 mg/kg i.p. 24 h before LPS) is listed as 22 relative optical density units; in series [3] (1.5 hours after LPS), 2 relative optical density units; in series [3] (2.0 hours after LPS), 7 relative optical density units; in series [3] (2.5 hours after LPS) it was 9 relative optical density units.

These data come from patent US20080221074A1, “Drug Screen and Treatment Method” (priority 2006, published 2008).
